System: MDA-MB-468 cells
Experiment: MDA-MB-468 cell viability, CellTiter-Glo, 24 hrs
Format: cell-based, human
Settings: 24 hrs incubation
Experimental: MDA-MB-468 cells, isolated from a pleural effusion of a patient with metastatic adenocarcinoma of the breast, is a triple negative breast cancer (TNBC) cell line. The IC 50 value of E05 or lapatinib (Sigma) or the structural analogues of E05 were tested in this cell line.
Briefly, MDA-MB-468 cells (ATCC #HTB-32) were seeded with a density of 5,000 cells per well in a 96 well white plate (Costar Cat #3917) in DMEM media supplemented with 10% FBS (assay medium). The plates were incubated at 37° C., 5% CO2 for 24 hr. E05 and analogues were diluted in the assay medium and added to the respective wells of the assay plate. The plates were further incubated at 37° C., 5% CO2 for 24 hrs. After the incubation, the cell viability was assessed using CellTiter-Glo® and the plates were read for luminescence using Cytation 5 (Biotek). The relative luminescence unit (RLU) obtained was plotted against the concentration and EC50 values were estimated using Graphpad Prism 5 software (FIG. 15 and Table 2).

O=C(O)CCc1ccc(O)cc1O [E05_B, 3-(2,4-Hydroxyphenyl)-propionic acid]
Activity (EC50): Inactive

— patent publication US20220370385A1, “COMPOSITIONS FOR USE IN INHIBITING SRC KINASE AND TREATING AND PREVENTING ASSOCIATED DISORDERS” (Enzene Biosciences Ltd., priority 2019, published 2022)
